According to US20160282364A1, “ASSAY FOR INSULIN-DEGRADING ENZYME (IDE) INHIBITORS” (PRESIDENT AND FELLOWS OF HARVARD COLLEGE, priority 2013, published 2016):

How the values were obtained:
[1] = Tissue distribution by stable isotope dilution LC-MS; format: in vivo, mouse; conditions: mice, 80 mg/kg i.p.
Method: Stable isotope dilution LC-MS, pharmacokinetics, and tissue distribution measurements. […] Tissue samples ( 100 mg) fromb 6K-treated mice and vehicle controls were weighed and disrupted in Dounce homogenizers with PBS buffer (0.5 mL/100 mg sample), supplemented with 5 μM heavy-6bK and protease inhibitor cocktail (1 tablet/50 mL PBS, Roche diagnostics). The lysate was incubated on ice for 30 min, sonicated 5 min and centrifuged at 13,000 g for 5 min. The bulk of supernatant proteins were precipitated by denaturation at 95° C. for 5 min, removed by centrifugation.

hIDE F202L = target: T1, hIDE F202L (Homo sapiens, UniProt P14735, F202L); assay: Small molecule-enzyme mutant complementation study; format: biochemical; conditions: F202L vs hIDE WT, batch 1
T1 construct: The reported N-His6-tagged human IDE42-1019 construct; made in house; host or cells: E. coli Rosetta 2 (DE3) pLysS
T1 sequence (P14735 42-1019 F202L): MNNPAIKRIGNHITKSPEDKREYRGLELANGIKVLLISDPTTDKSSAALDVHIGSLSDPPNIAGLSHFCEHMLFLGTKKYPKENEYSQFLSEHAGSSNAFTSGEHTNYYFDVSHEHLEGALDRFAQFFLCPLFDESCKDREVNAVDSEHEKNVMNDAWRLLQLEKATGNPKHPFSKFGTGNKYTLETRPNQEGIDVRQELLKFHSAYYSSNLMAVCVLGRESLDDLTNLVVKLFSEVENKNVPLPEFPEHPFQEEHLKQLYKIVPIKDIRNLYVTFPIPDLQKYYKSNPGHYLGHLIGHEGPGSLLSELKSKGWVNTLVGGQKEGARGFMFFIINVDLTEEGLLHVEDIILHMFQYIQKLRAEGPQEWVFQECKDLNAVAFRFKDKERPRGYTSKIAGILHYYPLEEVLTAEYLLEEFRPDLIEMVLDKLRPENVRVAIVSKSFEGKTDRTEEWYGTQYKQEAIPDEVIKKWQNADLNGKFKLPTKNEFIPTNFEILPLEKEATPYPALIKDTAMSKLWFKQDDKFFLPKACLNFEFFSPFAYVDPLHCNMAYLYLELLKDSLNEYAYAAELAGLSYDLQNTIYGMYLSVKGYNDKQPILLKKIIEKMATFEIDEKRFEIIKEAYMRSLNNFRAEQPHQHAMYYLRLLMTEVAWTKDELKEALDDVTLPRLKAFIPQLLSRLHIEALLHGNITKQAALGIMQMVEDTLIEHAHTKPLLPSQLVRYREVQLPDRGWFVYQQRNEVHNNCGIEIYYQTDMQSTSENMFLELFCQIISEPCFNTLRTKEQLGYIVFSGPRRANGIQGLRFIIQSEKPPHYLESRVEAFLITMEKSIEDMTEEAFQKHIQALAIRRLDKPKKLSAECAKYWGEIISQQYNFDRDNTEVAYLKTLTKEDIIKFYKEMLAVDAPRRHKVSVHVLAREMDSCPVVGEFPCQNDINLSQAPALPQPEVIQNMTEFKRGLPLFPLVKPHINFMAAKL
Text: Protease assays with fluorogenic peptide substrates. […] All assay data points were obtained in duplicate.
Site-directed mutagenesis, expression, and purification of human IDE. The reported N-His6-tagged human IDE42-1019 construct was introduced in the expression plasmid pTrcHis-A (Invitrogen) using primers for uracil-specific excision reactions (USER) by Taq (NEB) and Pfu polymerases (PfuTurbo CX®, Agilent). The IDE gene was amplified with the primers 5′-[…]-dU-[…] and 5′-[…] G-dU-[…] (underlined sequences represent overhangs, and italics highlight the PCR priming sequence). Similarly, the pTrcHis-A vector was amplified for USER cloning with the primers 5′-[…] TGA-dU-[…] CCC and 5′-[…]-dU-[…]. Mutant IDE constructs were generated by amplifying the full vector construct with USER cloning primers introducing a mutant overhang (Table 5).
All PCR products were purified on microcentrifuge membrane columns (MinElute®, Qiagen) and quantified by UV absorbance (NanoDrop). Each fragment (0.2 pmol) was combined in a 10 μL reaction mixture containing 20 units DpnI (NEB), 0.75 units of USER mix (Endonuclease VIII and Uracil-DNA Glycosylase, NEB), 20 mM Tris-acetate, 50 mM potassium acetate, 10 mM magnesium acetate, 1 mM dithiothreitol at pH 7.9 (1× NEBuffer 4). The reactions were incubated at 37° C. for 45 min, followed by heating to 80° C. and slow cooling to 30° C. (0.2° C./s). The hybridized constructs were directly used for heat-shock transformation of chemically competent NEB turbo E. coli cells according to the manufacturer's instructions. Transformants were selected on carbenicillin LB agar, and isolated colonies were cultured overnight in 2 mL LB.
The plasmid was extracted using a microcentrifuge membrane column kit (Miniprep®, Qiagen), and the sequence of genes and vector junctions were confirmed by Sanger sequencing (Table 6). The plasmid constructs were transformed by heat-shock into chemically-competent expression strain Rosetta 2 (DE3) pLysS E. coli cells (EMD Millipore), and selected on carbenicillin/chloramphenicol LB agar. Cells transformed with IDE pTrcHis A constructs were cultured overnight at 37° C. in 2 XYT media (31 g in 1 L) containing 100 μg/mL ampicillin and 34 μg/mL chloramphenicol. Expression of His6-tagged IDE proteins was induced when the culture measured OD600 ˜0.6 by addition of isopropyl-β-D-1-thiogalactopyranoside (IPTG) to 1 mM final concentration, incubated overnight at 37° C., followed by centrifugation at 10,000 g for 30 min at 4° C.
Recombinant His6-tagged proteins were purified by Ni(II)-affinity chromatography (IMAC sepharose beads, GE Healthcare®) according to the manufacturer's instructions. The cell pellets were resuspended in pH 8.0 buffer containing 50 mM phosphate, 300 mM NaCl, 10 mM imidazole, 1% Triton X-100 and 1 mM tris(2-carboxyethyl)phosphine hydrochloride (TCEP), and were lysed by probe sonication for 4 min at 4° C., followed by clearing of cell debris by centrifugation at 10,000 g for 25 min at 4° C. The supernatant was incubated with Ni(II)-doped IMAC resin (2 mL) for 3 h at 4° C. The resin was washed twice with the cell resuspension/lysis buffer, and three times with pH 8.0 buffer containing 50 mM phosphate, 300 mM NaCl,50 mM imidazole and 1 mM TCEP. Elution was performed in 2 mL aliquots by raising the imidazole concentration to 250 mM and subsequently to 500 mM in the previous buffer. The fractions were combined and the buffer was exchanged to the recommended IDE buffer (R&D) using spin columns with 100 KDa molecular weight cut off membranes (Millipore). Protein yields were typically ˜10 μg/L, and >90% purity based on gel electrophoresis analysis (Coomassie stained).

IC50 shift (hIDE F202L) [fold]	Structure (SMILES)	biodistribution into plasma, liver, kidney, and pancreatic tissues [1]	detection in the brain ([1]; 10-fold concentrated samples)
	NCCCC[C@@H]1NC(=O)/C=C/C(=O)N[C@H](C(N)=O)CCCCNC(=O)[C@@H](Cc2ccc(C(=O)c3ccccc3)cc2)NC(=O)[C@H](CC2CCCCC2)NC1=O [Compound 6bK]	prompt biodistribution	did not detect
1.7	NC(=O)CCC1NC(=O)C=CC(=O)NC(C(N)=O)CCCCNC(=O)C(Cc2ccc(C(=O)c3ccccc3)cc2)NC(=O)C(CC2CCCCC2)NC1=O (stereo not drawn) [Compound 6b]		
